# Measured values from patent US9693992B2 (MannKind Corporation, priority 2010, dated 2017).
# Test system: XBP-1 splicing
# Assay: XBP-1 splicing inhibition in livers and kidneys of CB17 SCID mice after tunicamycin
# Type: in vivo
# Conditions: 1 mg/kg IP, alone, relative to PBS treated mice
# Text: The preclinical validation strategy employs a set of animal models representing normal tissues under chemical stress and multiple myeloma xenographs. The normal animal model is employed as a surrogate model where dose-related on-target activity of compounds can be confirmed in tissues sensitive to standard UPR inducing agents such as tunicamycin (Wu et al., Dev Cell. 2007 September; 13(1d):351-64). […] Upon induction with tunicamycin, tissues induce active XBP-1 mRNA splicing, and this activity is suppressed by IRE-1α inhibitors. This on-target ER stress animal model is a useful screening and early pharmacokinetic tool.
# CB17 SCID mice were treated with 1 mg/kg tunicamycin by intraperitoneal (IP) injection at time 0 (T=0). Two hours later, compound A formulated in 10% hydroxy beta propyl cyclo dextran HBPCD was administered by IP injection. Doses were 50 mg/kg, 25 mg/kg and 10 mg/kg (4 mice in each group). Mice were sacrificed two hours later (4 hours from T=0), and the designated organs were harvested (FIG. 3A).
# RT-PCR analysis was performed using murine-specific XBP-1 primers from total RNA harvested from specified organs. […] Each lane represents an individual mouse where RNA was harvested and RT-PCR was performed. Method of RNA extraction and RT-PCR analysis is described in Volkmann et al., J. Biol. Chem. 286, 12743-55, 2011. […]
substance,measurement,value
tunicamycin,induction of XBP-1s,induces XBP-1 spliced
